Biological target: T1, Tyrosine-protein phosphatase non-receptor type 5 (Homo sapiens, UniProt P54829)
T1 sequence (P54829 whole entry): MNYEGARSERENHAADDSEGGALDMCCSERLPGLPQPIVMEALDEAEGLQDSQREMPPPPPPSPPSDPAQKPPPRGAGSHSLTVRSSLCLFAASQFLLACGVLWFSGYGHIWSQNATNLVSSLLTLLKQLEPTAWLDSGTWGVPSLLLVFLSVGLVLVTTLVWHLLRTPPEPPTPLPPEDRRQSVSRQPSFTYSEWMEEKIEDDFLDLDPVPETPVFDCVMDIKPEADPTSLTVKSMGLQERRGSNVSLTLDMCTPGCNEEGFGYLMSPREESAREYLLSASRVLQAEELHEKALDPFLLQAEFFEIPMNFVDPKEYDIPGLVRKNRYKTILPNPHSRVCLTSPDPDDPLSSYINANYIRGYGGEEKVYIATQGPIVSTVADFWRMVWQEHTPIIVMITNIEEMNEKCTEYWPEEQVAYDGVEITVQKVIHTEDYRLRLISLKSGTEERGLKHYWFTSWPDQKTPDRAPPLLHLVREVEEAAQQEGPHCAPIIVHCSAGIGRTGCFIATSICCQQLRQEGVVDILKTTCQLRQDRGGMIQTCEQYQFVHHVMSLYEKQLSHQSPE
Assay: STEP phosphatase inhibitor potency, dose response, orthogonal assay for STEP inhibitor project, biochemical, colorimetric absorbance (AID 624207)
Settings: not given

Compound	IC50 [µM]
O=[N+]([O-])c1ccc(O)c(Nc2ncnc3ccccc23)c1 [4-nitro-2-(4-quinazolinylamino)phenol]	> 80
Cc1ccc(S(=O)(=O)c2cnc3ccc(Cl)cc3c2O)cc1	> 80
O=C(C=Cc1ccc(Cl)cc1)NC(=S)Nc1ccc(C(=O)O)cc1	> 80
CCOc1cc(CN=Nc2nc(O)c(CC(=O)O)s2)ccc1OCc1ccc(Cl)cc1Cl [2-[2-[(N''E)-N''-[4-(2,4-dichlorobenzyl)oxy-3-ethoxy-benzylidene]hydrazino]-4-keto-2-thiazolin-5-yl]acetic acid]	> 80
COc1cc(C(=S)N2CCCCC2)ccc1O [(4Z)-2-methoxy-4-[piperidin-1-yl(sulfanyl)methylidene]cyclohexa-2,5-dien-1-one]	15.5
CCN(c1ccccc1)S(=O)(=O)c1cc(C(=O)OCC(=O)c2c(N)n(C)c(=O)n(C)c2=O)ccc1C [[2-(4-amino-1,3-dimethyl-2,6-dioxopyrimidin-5-yl)-2-oxoethyl] 3-[ethyl(phenyl)sulfamoyl]-4-methylbenzoate]	> 80
CCOC(=O)c1sc2nc3c(SCC(=O)O)cc(C(=O)c4ccccc4O)cn3c(=O)c2c1C [MLS-0266851.0001]	> 80
COc1ccc(NC(S)=NCCN2CCC(C)CC2)cc1Cl [1-(3-chloro-4-methoxyphenyl)-3-[2-(4-methyl-1-piperidinyl)ethyl]thiourea]	18.2
Cc1ccc(S(=O)(=O)Cc2ccc(C(=O)O)o2)cc1 [5-(tosylmethyl)-2-furoic acid]	> 80
CCc1ccc(NC(=O)Cc2cn(C)c3ccccc23)cc1	> 80
Cc1ccc(Cn2cc(C=O)c(-c3ccc(C)cc3)n2)cc1 [3-(4-methylphenyl)-1-[(4-methylphenyl)methyl]-4-pyrazolecarboxaldehyde]	> 80
NC(=O)c1cc2ccccc2o/c1=N\NC(=O)c1ccccc1O [(2Z)-2-[[(2-hydroxyphenyl)-oxomethyl]hydrazinylidene]-1-benzopyran-3-carboxamide]	13.7
Cc1ccccc1N1CCN(C(=S)c2ccc(-c3cccc([N+](=O)[O-])c3)o2)CC1 [[4-(2-methylphenyl)-1-piperazinyl]-[5-(3-nitrophenyl)-2-furanyl]methanethione]	> 80
COc1cc(/C=C2/SC(=S)N(CC(=O)O)C2=O)ccc1OCC(=O)Nc1ccc(C)c(C)c1 [2-[(5E)-5-[[4-[2-[(3,4-dimethylphenyl)amino]-2-oxidanylidene-ethoxy]-3-methoxy-phenyl]methylidene]-4-oxidanylidene-2-sulfanylidene-1,3-thiazolidin-3-yl]ethanoic acid]	> 80
Cc1cccc(Nc2nn3c(=O)c4ccccc4nc3s2)c1 [2-[(3-methylphenyl)amino]-5H-[1,3,4]thiadiazolo[2,3-b]quinazolin-5-one]	8.34
NN=C1C(Cl)=C(Cl)C(Cl)=C1Cl	> 80
O=C(N/N=C/c1ccc(Br)s1)c1cccc([N+](=O)[O-])c1 [N-[(E)-(5-bromanylthiophen-2-yl)methylideneamino]-3-nitro-benzamide]	14.9
CCOc1ccc(CCNC(=O)CS(=O)(=O)Cc2nc(-c3ccc(OC)cc3)oc2C)cc1 [N-[2-(4-ethoxyphenyl)ethyl]-2-[[2-(4-methoxyphenyl)-5-methyl-1,3-oxazol-4-yl]methylsulfonyl]ethanamide]	> 80
CCOC(=O)CN1C(=O)S/C(=C/c2ccc(OCc3ccc(C(=O)O)cc3)cc2)C1=O [4-[[4-[(E)-[3-(2-ethoxy-2-oxoethyl)-2,4-dioxo-5-thiazolidinylidene]methyl]phenoxy]methyl]benzoic acid]	> 80
CCN1CCN(C(=S)c2ccc(OCC(=O)NCc3ccccc3)cc2)CC1 [2-[4-(4-ethylpiperazin-1-yl)carbothioylphenoxy]-N-(phenylmethyl)ethanamide]	> 80
O=C1Nc2ccc3sc4ccccc4c3c2C1=O [3H-6-Thia-3-aza-cyclopenta[c]fluorene-1,2-dione]	> 80
COc1ccc(-n2nc(C(=O)NCC(=O)Nc3ccccn3)c3ccccc3c2=O)cc1Cl [3-(3-chloranyl-4-methoxy-phenyl)-4-oxidanylidene-N-[2-oxidanylidene-2-(pyridin-2-ylamino)ethyl]phthalazine-1-carboxamide]	> 80
O=C(CSc1nc(-c2ccc(F)cc2)nc2c1Cc1ccccc1O2)Nc1cccc(C(=O)O)c1 [3-[({[2-(4-fluorophenyl)-5H-chromeno[2,3-d]pyrimidin-4-yl]thio}acetyl)amino]benzoic acid]	1.55
O=C(O)c1ccc2c(c1)C(=O)N(c1cccc(-c3nc4ccccc4s3)c1)C2=O [2-[3-(1,3-benzothiazol-2-yl)phenyl]-1,3-bis(oxidanylidene)isoindole-5-carboxylic acid]	> 80
COc1ccccc1NS(=O)(=O)c1cc(NC(=O)c2sccc2C)ccc1N1CCCC1 [N-[3-[(2-methoxyphenyl)sulfamoyl]-4-(1-pyrrolidinyl)phenyl]-3-methyl-2-thiophenecarboxamide]	6.95
COc1cccc(N2[C@@H](CC(=O)O)c3ccc(/C=C/C(=O)O)cc3S2(=O)=O)c1 [(E)-3-[(3S)-3-(carboxymethyl)-2-(3-methoxyphenyl)-1,1-dioxo-3H-1,2-benzothiazol-6-yl]prop-2-enoic acid]	> 80

Further lines, results first:

IC50 [µM]	Compound
> 80	CCc1ccc(OCC(=O)Nc2ccc(-c3nc4ccccc4o3)c(O)c2)cc1 [MLS000109444]
> 80	CC(=O)N1CCOc2ccc(S(=O)(=O)NCc3ccc(F)cc3)cc21 [MLS001117284]
> 80	O=Cc1cn(-c2ccccc2)nc1-c1cc2cc(O)ccc2oc1=O [SMR000152596]
> 80	CCN(c1ccccc1)S(=O)(=O)c1cc(C(=O)OC(C)C(=O)Nc2ccc3c(c2)OCCO3)ccc1C (centres undefined) [SMR000242949]
32.5	O=C(NN=Cc1ccccc1O)NN=Cc1ccccc1O [SMR001556943]
15.7	CC(C(=O)Nc1ccc(O)cc1C(=O)O)N1C(=O)/C(=C\c2cccs2)SC1=S (centres undefined) [MLS001157883]
20	O=C(COc1ccc(/C=N/NC(=O)c2ccc(O)cc2)cc1)Nc1cccc([N+](=O)[O-])c1 [MLS000714465]
> 80	COc1ccc(OC)c(-n2c(O)c3o[nH]c(-c4ccccc4Cl)c-3c2=O)c1 [SMR000046218]
> 80	Cc1ccc(NC(=O)CN2C(=O)S/C(=C\c3ccc(OCC(=O)O)c(Br)c3)C2=O)cc1 [SMR000477386]
13.3	COC(=O)Nc1sc2c(c1C(N)=O)CCC(C)C2 (centres undefined) [MLS000683996]
> 80	O=C(NC1CCCCCC1)C(=S)NC1CCCCC1 [SMR000296231]
> 80	C=CC1=C(C(=O)O)N2C(=O)C(NC(=O)Cc3ccccc3)C2SC1 (centres undefined) [MLS000123928]
> 80	COc1ccc2cc3c(N)nn(C(=O)c4cccc(F)c4)c3nc2c1 [MLS000731294]
15.8	O=C(N/N=C/C1C=CC=CC1=O)c1cccc([N+](=O)[O-])c1 (centres undefined) [MLS002667988]
> 80	CCOC(=O)CC(NS(=O)(=O)c1ccc2ncc(C(=O)O)c(O)c2c1)c1ccc(OCC)c(OC)c1 (centres undefined) [SMR000621519]
> 80	CCOc1ccc(C(=O)Nc2cc(-c3nc4ccccc4[nH]3)ccc2Cl)cc1[N+](=O)[O-] [MLS000574482]
72.8	S=C1N=C2C(=C3SCCS3)CCCC2C(c2ccccc2)N1 (centres undefined) [MLS000516376]

Same assay, conditions: inactive by the depositor's call

Compound	IC50 [µM]
S=C(c1cn(CCOc2ccccc2)c2ccccc12)N1CCCC1 [MLS-0109562.0001]	41.3
O=C(N/N=C/c1cccc(Br)c1)c1ccc(N2CCCC2=O)cc1 [N-[(E)-(3-bromophenyl)methylideneamino]-4-(2-oxidanylidenepyrrolidin-1-yl)benzamide]	22.9
CN1CCC2(CC1)N=C(c1ccc(F)cc1)C(=S)N2	71.7
COc1ccc(NC(=S)N2CCC(N(C)CC3CCCO3)CC2)cc1Cl (centres undefined) [N-(3-chloranyl-4-methoxy-phenyl)-4-[methyl(oxolan-2-ylmethyl)amino]piperidine-1-carbothioamide]	40.3
CCCCC(=O)Nc1ccc(C(=O)NNC(=O)c2ccc(C)c(Br)c2)cc1 [N-(4-{[2-(3-bromo-4-methylbenzoyl)hydrazino]carbonyl}phenyl)pentanamide]	53.8
Cc1ccc(N=C(S)N(CCN(C)C)Cc2cccs2)c(C)c1	56
COc1ccc(NC(=S)NCCCN2CCCC2)cc1Cl [1-(3-chloro-4-methoxyphenyl)-3-[3-(1-pyrrolidinyl)propyl]thiourea]	31.1
CCC(CC)c1nnc(NC(=O)c2cc(C(=O)OC)cc([N+](=O)[O-])c2)s1	21.8
S=C(NCCc1ccccc1)Nc1c(Cl)cccc1Cl [1-(2,6-dichlorophenyl)-3-(2-phenylethyl)thiourea]	41.2

More lines, now with the values ahead:

IC50 [µM]	Compound
56.9	CN(C)c1ccc(C(=S)N2CCN(Cc3ccccc3)CC2)cc1 [MLS000679877]
23.8	Cc1c(CC(=O)O)c(=O)oc2c(C)c(OCc3ccc(F)cc3Cl)ccc12 [MLS001213411]
32.8	O=C(O)CCC(/N=N/c1ccc(S(=O)(=O)N2CCCC2)cc1[N+](=O)[O-])c1cccs1 (centres undefined) [SMR000151450]
27	CCOC(=O)N1CCC(N(CCN(C)C)C(=S)Nc2ccc(Oc3ccccc3)cc2)CC1 [SMR000311544]
77	N=C(NCc1ccc2c(c1)OCO2)NC(=O)c1ccccc1 [SMR000293067]
39.3	CCN1CCN(C(=S)c2ccc(Cl)c(Cl)c2)CC1 [SMR000143195]
32.1	Cc1c(CC(=O)NCCCCCC(=O)O)c(=O)oc2c(C)c3oc4c(c3cc12)CCCC4 [MLS001214831]
